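Five compound concentrations were applied to cells in 96-well plates for 48 hours; endpoints were derived by simple linear interpolation of the resulting dose-response curve. TGI is the concentration that stops growth completely.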 Where a SMILES comes first, the peptide text is derived from it. The star is where a group is joined. Cbz = O=C(OCc1ccccc1)*; NHNH2 = NN*
What was measured:
Test in all cases: growth of human tumour cells (NCI), 48 h
[1] = test system: OVCAR-8 ovarian
[2] = test system: SR leukemia
[3] = test system: NCI/ADR-RES ovarian
[4] = test system: IGROV1 ovarian
[5] = test system: MALME-3M melanoma
[6] = test system: MDA-N
[7] = test system: MCF7 breast
[8] = test system: CCRF-CEM leukemia
[9] = test system: KM12 colon
[10] = test system: NCI-H226 lung

Measured: TGI

O=C(Cc1ccc([N+](=O)[O-])cc1)OCC#CCOC(=O)Cc1ccc([N+](=O)[O-])cc1
> 10 µM: [1] | [2] | [3] | [4] | [5] | [6] | [7] | [8] | [9]

NC(=O)c1cc2ccccc2o/c1=N/O
> 100 µM: [10] | [1] | [2] | [3] | [4] | [6] | [7] | [8] | [9]

NC1CNC(=O)c2c(Cl)sc(Cl)c21 (configuration not stated)
> 100 µM: [10] | [1] | [2] | [3] | [4] | [5] | [6] | [7] | [9]

Brc1cccc(N=NN2CCCC2)c1
> 100 µM: [10] | [1] | [2] | [3] | [4] | [6] | [7] | [8] | [9]

Clc1ccc(OCc2nnc(CCCCCCCCc3nnc(COc4ccc(Cl)cc4)n3Nc3ccccc3)n2Nc2ccccc2)cc1
> 65.6 µM: [5]
> 100 µM: [10] | [1] | [4] | [7]
81.5 µM: [3]
36.9 µM: [9]
37.1 µM: [6]

C=c1c(OC)c(OC)c(O)c2c1=c1cc([N+](=O)[O-])cc(OC)c1=N2
> 100 µM: [10] | [1] | [3] | [4] | [5] | [6] | [7] | [8] | [9]

Nc1ccc2[nH]c(-c3cccc(Cl)c3)cc(=O)c2c1
> 100 µM: [1] | [4] | [5] | [7] | [8] | [9]
12.4 µM: [3]

CC1(C)CNC(=O)C2(C=NC(C)(C)CNC(=O)C3(C=N1)CCCO3)CCCO2 (configuration not stated)
> 10 µM: [1] | [2] | [3] | [4] | [5] | [6] | [7] | [8] | [9]

N#Cc1cc2c(cc1Cl)Sc1nccn1S2(=O)=O
18 µM: [10]
22.2 µM: [5]
13.6 µM: [4]
3.9 µM: [3]
20.7 µM: [9]
8.9 µM: [1]
> 23.4 µM: [7]
3.54 µM: [2]

COC(=O)/C=C/c1cc(OC)c(OC)c(OC)c1
> 100 µM: [10] | [1] | [2] | [4] | [5] | [8] | [9]

O=C(O)C(CO)NC(=O)n1c2ccccc2c2ccccc21 (configuration not stated)
> 100 µM: [10] | [1] | [2] | [4] | [5] | [8] | [9]

COc1ccc(Nc2nc3c([nH]2)c(=O)n(C)c(=O)n3C)cc1
> 10 µM: [1] | [2] | [4] | [5] | [6] | [7] | [8] | [9]

FC(F)(F)c1ccc2nc3n(c2c1)C(c1c(Cl)cccc1Cl)SC3 (configuration not stated)
37.9 µM: [7]
24.1 µM: [4]
24.3 µM: [6]
21.4 µM: [2]
29.9 µM: [5]
25.7 µM: [3]
28.3 µM: [9]
35.4 µM: [10]
46.8 µM: [1]

O=C(N/N=C/c1cc(Br)cc(Br)c1[O-])c1ccccc1O.O=C(N/N=C/c1cc(Br)cc(Br)c1[O-])c1ccccc1O.[Fe+2]
36.1 µM: [1]
24.9 µM: [8]
7.41 µM: [10]
23.9 µM: [9]
41.4 µM: [4]
37.5 µM: [5]

CN(C)CCn1c(=O)c2ccc(NCCCN(C)CCCNc3ccc4c(=O)n(CCN(C)C)c(=O)n5c6ccc([N+](=O)[O-])cc6c(=O)c3c45)c3c(=O)c4cc([N+](=O)[O-])ccc4n(c1=O)c23
0.22 µM: [6]
0.781 µM: [5]
0.431 µM: [1]
0.174 µM: [4]
0.608 µM: [7]
0.27 µM: [9]

NC(=O)C(=CNC(=S)c1ccncc1)C(N)=O
> 100 µM: [10] | [1] | [2] | [3] | [4] | [6] | [7] | [8] | [9]

Cc1nc(C)c(Cc2ccccc2)o1
> 100 µM: [10] | [1] | [3] | [4] | [5] | [6] | [7] | [8] | [9]

NC(N)=Nc1ncccc1[N+](=O)[O-]
> 88 µM: [5]
> 64.4 µM: [7]
> 100 µM: [10] | [1] | [3] | [4] | [8] | [9]

C=CCOCCCCC(C(C)=O)C(=O)OC (configuration not stated)
> 100 µM: [10] | [1] | [2] | [4] | [5] | [8] | [9]

Cn1c2ccccc2n2c(=O)c3cc([N+](=O)[O-])ccc3c(C#N)c12
> 100 µM: [10] | [1] | [2] | [3] | [4] | [6] | [7] | [8] | [9]

COC(=O)CC(NC(=O)OCc1ccccc1)C(=O)NC(CC(=O)OC)C(=O)NC(CC(=O)OC)C(=O)NC(CC(=O)OC)C(=O)NC(CC(=O)OC)C(=O)NC(CC(=O)OC)C(=O)NN (configuration not stated) (Cbz-D(OMe)D(OMe)D(OMe)D(OMe)D(OMe)D(OMe)-NHNH2; configuration not given here)
> 100 µM: [1] | [2] | [4] | [6] | [7] | [8] | [9]

CN(C)S(=O)(=O)Nc1nnc(S(N)(=O)=O)s1
> 100 µM: [10] | [2] | [3] | [4] | [5] | [7] | [9]

Nc1c(C(=O)c2ccc(Cl)cc2)[nH]c(NCc2ccccc2)c1C(=S)Nc1ccccc1
24.2 µM: [3]
3.24 µM: [9]
6.43 µM: [4]
27.2 µM: [10]
3.32 µM: [6]
3.37 µM: [1]
5.54 µM: [8]
3.08 µM: [7]

CC(=S)N=Cc1c(O)cc(C)oc1=O
> 100 µM: [10] | [1] | [3] | [4] | [6] | [7] | [8] | [9]
